From patent US8673949B2 (Bristol-Myers Squibb Company, priority 2008, dated 2014)
Several values for one entry are separate records, joined by “and”; a condition that tells them apart may be missing. Equal values may be shown once. Read-outs that look alike come from different tables or passages of the source.

Assays:
[1] = tested on: neurofibrillary tangles; experiment: Gallyas silver staining for neurofibrillary tangles in Tg4510 mice; format: in vivo, mouse; conditions: cortex and hippocampus, vs vehicle
Experimental: (§1) Mice were euthanized by cervical dislocation at 5. 5 months followed by decapitation. Brains were immediately removed and divided down the midline into two hemispheres. The right hemisphere was placed into 20 mL of 4% paraformaldehyde (prepared fresh on the day of sacrifice) and stored overnight at 4° C. The following day, the brains were transferred to a tube containing 20 mL TBS (pH 7.4, 20 mM TRIS, 100 mM NaCl) and then stored at 4° C. until processing. Right hemispheres were embedded in paraffin, sectioned at 5 microns, and mounted on positively charged glass slides. The slides were dried overnight in a 60° C. oven and stored at room temperature until stained. The left hemispheres were frozen (within 2 minutes) on dry ice.
The Gallyas staining method was used to detect silver-positive neurofibrillary tangles and dystrophic neurites. Paraffin-embedded thin sections (5 microns) mounted on glass slides were deparaffinized and rehydrated via serial incubation in xylene (two times for 10 minutes each), 100% ethanol (two times for 10 minutes each), 95% MeOH/5% H2O2 (30 minutes), 95% ethanol (two times for 5 minutes each), 80% ethanol (two times for 5 minutes each), 50% ethanol (two times for 5 minutes each), and water (two times for 5 minutes each). […]

[2] = tested on: Tg4510 mice; experiment: Morris water maze (MWM) in Tg4510 mice; conditions: vs vehicle; for MWM acquisition: locating the hidden platform: tested at 4.5 months; for MWM probe trial % pathlength in target quadrant / MWM probe trial number of platform crossings: probe 18 h after 5 days of training
Experimental: A 10× stock solution was made in 100% ethanol, and diluted just before dosing. Mice were dosed in 3 cohorts and data were combined to give a final N of 12, 9, and 15 for the vehicle, 1 mpk, and 10 mpk groups, respectively. Mice were dosed in a chemical fume hood.
Tg4510 mice were used in this study. […] At 9 weeks (+/−15 days) of age, mice were acclimated to handling with a single mock injection of phosphate buffered saline, performed within a chemical fume hood. The mice were then housed in cages kept within the chemical fume hood for 48 hours. Following the 48-hour period, the mice were transferred to clean cages and brought to a behavioral suite for testing.
Mice were again tested in the MWM after the eighth dose (19 weeks of age+/−15 days) for six days. After behavioral testing, dosing resumed until the animals were 5.5 months of age at the time of harvest.
Mice were tested in Morris water maze (MWM) on two occasions, once prior to dosing, and once two months after dosing began. The second round of water maze testing was performed in another testing room. Mice were acclimated to the experimental room for 2-3 days prior to testing. The mice were placed in a water maze of 1.5 m diameter, with a 16 cm diameter platform placed 0.5-1.0 cm under the surface of the water. The water was made opaque with non-toxic white paint and the water temperature was regulated between 22-25° C.
The mice were given 4 trials per day of up to 90 seconds each with a 10 second rest period on the platform after each trial. […] The testing room rooms each had large external cues to allow the mice to orient as they learned the location of the platform. Mice were placed under a heat lamp to prevent hypothermia after each trial. The interval between trials ranged from 25 to 45 minutes. The mice were tracked using HVS Image Advanced Tracker VP200 software (Buckingham, UK) and the total distance traveled until reaching of the platform was determined.
Statistical analysis for acquisition path length from the five trials involved a repeated measures analysis of variance. […] If the analysis indicated a significant effect of treatment, or a treatment-by-trial interaction, differences between the 1 mpk and 10 mpk groups were compared to the vehicle group using Dunnett's test. The probe pathlengths in each quadrant, and number of platform crossings in each quadrant, were analyzed using Dunnett's test. In all cases, 1 mpk and 10 mpk groups were compared to the vehicle group. All calculations were done in SAS, version 9.1, under the Windows XP Professional operating system.

[3] = Plasma, brain and liver levels after oral gavage in C57BL/6 mice; format: in vivo, mouse
Text: Below, we first report the experimental detail for preparation and isolation of Compound III, and then the biological, in vivo data is described.

[4] = tested on: phosphorylated Tau (AT8); experiment: AT8 phosphoTau immunohistochemistry in Tg4510 mice; format: in vivo, mouse
Experimental: as §1
Paraffin-embedded thin sections (5 microns) were deparaffinized and rehydrated to water in 3 changes of xylene, two changes of 100% ethanol, and 1 change of 95% ethanol, followed by rinsing in water. Antigen retrieval was performed by steaming the slides in 10 mM sodium citrate buffer, pH 6.0 for 30 minutes in a Black and Decker Steamer (Model # HS900) and then cooled for 30 minutes. […] After washing in TBS, the signal is detected using a Vectastain ABC Elite Kit (Vector Labs Burlingame, Calif.) for 1 hour followed by detection using the diaminobenzadine reagent from Vector labs. […]

[5] = Brain half-life of epothilone D in rats; format: in vivo; conditions: 1 mg/kg, Rat, IV, 1 mpk
Text: (§2) To calculate an accurate brain half-life for a long half-life compound, measurements need to be taken for several half lives after a single dose.

[6] = Brain half-life of epothilone D in mice; format: in vivo, mouse; conditions: for half-life: mouse, brain
Text: as §2

[7] = Plasma, brain and liver levels after bolus IV administration in nude mice; conditions: bolus IV 5 mpk; for concentration at 6 h / concentration at 24 h: nude, mouse, in vivo, iv, 5 mg/kg
[8] = mouse, brain, 10 mg/kg, C57BL/6 mice, oral gavage 10 mpk, read-out: Brain conc
[9] = mouse, brain, 35 mg/kg, C57BL/6 mice, oral gavage 35 mpk, read-out: Brain conc
[10] = mouse, plasma, 10 mg/kg, C57BL/6 mice, oral gavage 10 mpk, read-out: Plasma conc
[11] = mouse, plasma, 35 mg/kg, C57BL/6 mice, oral gavage 35 mpk, read-out: Plasma conc

## C/C1=C/C[C@@H](/C(C)=C/c2csc(C)n2)OC(=O)C[C@H](O)C(C)(C)C(=O)[C@H](C)[C@@H](O)[C@@H](C)CCC1 [Epothilone D, epothilone D]
[1]; 1 mpk IP weekly
  Gallyas silver staining: neurofibrillary tangles: much lower levels of neurofibrillary tangles than did vehicle-treated mice
[1]; 10 mpk IP weekly
  Gallyas silver staining: neurofibrillary tangles: trend toward improvement
[2]; 1 mpk IP once weekly, p<0.01
  MWM acquisition: locating the hidden platform: able to locate the hidden platform in the MWM more quickly
[2]; 1 mpk IP weekly for 2 months
  MWM probe trial % pathlength in target quadrant: statistically significant differences in both measures as compared with the vehicle group
  MWM probe trial number of platform crossings: statistically significant differences in both measures as compared with the vehicle group
[2]; 10 mpk IP once weekly
  MWM acquisition: locating the hidden platform: trend toward improvement
[2]; 10 mpk IP weekly for 2 months
  MWM probe trial % pathlength in target quadrant: significantly greater performance compared to the vehicle group
  MWM probe trial number of platform crossings: not when using the number of platform crossings measure
[3]; C57BL/6 mice, oral gavage 10 mpk, 48 hr
  Plasma conc: (0.1 nM)
[3]; C57BL/6 mice, oral gavage 10 mpk, 96 hr
  Plasma conc: (0.1 nM)
[3]; C57BL/6 mice, oral gavage 35 mpk, 24 hr
  Plasma conc: (0.5 nM)
[3]; [8]
  concentration at 1 h: 10.6 nM
  concentration at 3 h: 7 nM
  concentration at 4 h: 9.9 nM
  concentration at 8 h: 6.4 nM
  concentration at 13 h: 6.3 nM
[3]; mouse, brain, 10 mg/kg, C57BL/6 mice, oral gavage 10 mpk, 24 hr, read-out: Brain conc
  concentration at 24 h: 9.1 nM
[3]; mouse, brain, 10 mg/kg, C57BL/6 mice, oral gavage 10 mpk, 48 hr, read-out: Brain conc
  concentration at 48 h: 5.4 nM
[3]; mouse, brain, 10 mg/kg, C57BL/6 mice, oral gavage 10 mpk, 96 hr, read-out: Brain conc
  concentration at 96 h: 3 nM
[3]; [9]
  concentration at 1 hr: 61.3 nM
  concentration at 5 hr: 76.9 nM
[3]; mouse, brain, 35 mg/kg, C57BL/6 mice, oral gavage 35 mpk, 24 hr, read-out: Brain conc
  concentration at 24 hr: 118 nM
[3]; [10]
  concentration at 1 h: 15.1 nM
  concentration at 3 h: 3.9 nM
  concentration at 4 h: 2.5 nM
  concentration at 8 h: 1.4 nM
  concentration at 13 h: 0.1 nM
[3]; mouse, plasma, 10 mg/kg, C57BL/6 mice, oral gavage 10 mpk, 24 hr, read-out: Plasma conc
  concentration at 24 h: 0.2 nM
[3]; [11]
  concentration at 1 hr: 52.7 nM
  concentration at 5 hr: 3.6 nM
[3]; oral dosing 10 and 35 mpk (also IV, Table 2)
  time brain levels were maintained: more than 24 h
[4]; 1 mpk IP weekly, vs vehicle
  AT8 phosphoTau staining, hippocampus CA1: much less phosphoTau staining
[4]; 10 mpk IP weekly
  AT8 phosphoTau staining, hippocampus CA1: intermediate levels of phosphoTau staining
[5]
  half-life: 31 h
[6]; Mouse, IP, 10 mpk, 10 mg/kg
  Half life (brain): 37 h and 45 h and 46 h
[6]; intravenous, oral, intraperitoneal, mice, multiple routes of administration and dosages, read-out: brain half life, average (converted)
  half-life: 46 h
[6]; ip, 1 mg/kg, Mouse, IP, 1 mpk, read-out: Half life (brain) (converted)
  half-life: 44 h
[6]; ip, 10 mg/kg, Mouse, IP, 10 mpk, read-out: Half life (brain) (converted)
  half-life: 41 h
[6]; iv, 5 mg/kg, Mouse, IV, 5 mpk, read-out: Half life (brain) (converted)
  half-life: 61 h
[6]; po, 10 mg/kg, Mouse, Oral, 10 mpk, read-out: Half life (brain) (converted)
  half-life: 46 h
[7]; 6 and 24 h after dosing
  brain levels versus liver levels: high brain levels that exceeded liver levels
[7]; Brain conc
  concentration at 6 h: 2790 nM
  concentration at 24 h: 2050 nM
[7]; Plasma conc
  concentration at 6 h: 6 nM
  concentration at 24 h: 1 nM
